This assay concerns the target CDK2/Cyclin E1 (Homo sapiens (Human), UniProt P24941). Briefly: CDK2/Cyclin E1 HTRF enzyme activity assay (Example A). The class given is biochemical. To be noted: 1 mM ATP. How it is done: Assays were conducted in white 384-well polystyrene plates in a final reaction volume of 8 μL. […] HTRF signals were read after 1 hour at room temperature on a PHERAstar FS plate reader (BMG Labtech). Data was analyzed with IDBS XLFit and GraphPad Prism 5.0 software using a three or four parameter dose response curve to determine IC50 for each compound.
Background: In TR-FRET formats the signal depends on donor and acceptor labels being close together.

The source of these data is patent US11427567B2, “Imidazolyl pyrimidinylamine compounds as CDK2 inhibitors” (Incyte Corporation, priority 2019, dated 2022).

As for `CC(c1cccc(-n2cnc(-c3nc(NC4CCN(S(C)(=O)=O)CC4)ncc3C(F)(F)F)c2)c1Cl)N1CCC1` (stereo not shown) [Example 469, 4-(1-(3-(1-(Azetidin-1-yl)ethyl)-2-chlorophenyl)-1H-imidazol-4-yl)-N-(1-(methylsulfonyl)piperidin-4-yl)-5-(trifluoromethyl)pyrimidin-2-amine], the IC50 is ≤ 50 nM.
On to `CS(=O)(=O)N1CCC(Nc2ncc(C(F)(F)F)c(-c3cn(-c4cccc(CN5CC(C#N)C5)c4C(F)(F)F)cn3)n2)CC1` [Example 470, 1-(3-(4-(2-((1-(Methylsulfonyl)piperidin-4-yl)amino)-5-(trifluoromethyl)pyrimidin-4-yl)-1H-imidazol-1-yl)-2-(trifluoromethyl)benzyl)azetidine-3-carbonitrile], for which the IC50 is ≤ 50 nM.
In the case of `CS(=O)(=O)N1CCC(Nc2ncc(C(F)(F)F)c(-c3cn(-c4cccc(CN5CC[C@H](C#N)C5)c4C(F)(F)F)cn3)n2)CC1` [Example 471, (S)-1-(3-(4-(2-((1-(Methylsulfonyl)piperidin-4-yl)amino)-5-(trifluoromethyl)pyrimidin-4-yl)-1H-imidazol-1-yl)-2-(trifluoromethyl)benzyl)pyrrolidine-3-carbonitrile] it was ≤ 50 nM; in that of `CS(=O)(=O)N1CC[C@H](Nc2ncc(C(F)(F)F)c(-c3cn(-c4ccccc4C#N)cn3)n2)[C@H](F)C1` [Example 472, 2-(4-(2-(((3R,4S)-3-Fluoro-1-(methylsulfonyl)piperidin-4-yl)amino)-5-(trifluoromethyl)pyrimidin-4-yl)-1H-imidazol-1-yl)benzonitrile], ≤ 50 nM.

By IC50 is commonly meant the concentration needed to halve the response being measured. Lower therefore signals greater potency in that assay.
